The target in assay [1] is T1, JAK3 enzyme (Homo sapiens, UniProt P52333).
T1 sequence (P52333 1-1124): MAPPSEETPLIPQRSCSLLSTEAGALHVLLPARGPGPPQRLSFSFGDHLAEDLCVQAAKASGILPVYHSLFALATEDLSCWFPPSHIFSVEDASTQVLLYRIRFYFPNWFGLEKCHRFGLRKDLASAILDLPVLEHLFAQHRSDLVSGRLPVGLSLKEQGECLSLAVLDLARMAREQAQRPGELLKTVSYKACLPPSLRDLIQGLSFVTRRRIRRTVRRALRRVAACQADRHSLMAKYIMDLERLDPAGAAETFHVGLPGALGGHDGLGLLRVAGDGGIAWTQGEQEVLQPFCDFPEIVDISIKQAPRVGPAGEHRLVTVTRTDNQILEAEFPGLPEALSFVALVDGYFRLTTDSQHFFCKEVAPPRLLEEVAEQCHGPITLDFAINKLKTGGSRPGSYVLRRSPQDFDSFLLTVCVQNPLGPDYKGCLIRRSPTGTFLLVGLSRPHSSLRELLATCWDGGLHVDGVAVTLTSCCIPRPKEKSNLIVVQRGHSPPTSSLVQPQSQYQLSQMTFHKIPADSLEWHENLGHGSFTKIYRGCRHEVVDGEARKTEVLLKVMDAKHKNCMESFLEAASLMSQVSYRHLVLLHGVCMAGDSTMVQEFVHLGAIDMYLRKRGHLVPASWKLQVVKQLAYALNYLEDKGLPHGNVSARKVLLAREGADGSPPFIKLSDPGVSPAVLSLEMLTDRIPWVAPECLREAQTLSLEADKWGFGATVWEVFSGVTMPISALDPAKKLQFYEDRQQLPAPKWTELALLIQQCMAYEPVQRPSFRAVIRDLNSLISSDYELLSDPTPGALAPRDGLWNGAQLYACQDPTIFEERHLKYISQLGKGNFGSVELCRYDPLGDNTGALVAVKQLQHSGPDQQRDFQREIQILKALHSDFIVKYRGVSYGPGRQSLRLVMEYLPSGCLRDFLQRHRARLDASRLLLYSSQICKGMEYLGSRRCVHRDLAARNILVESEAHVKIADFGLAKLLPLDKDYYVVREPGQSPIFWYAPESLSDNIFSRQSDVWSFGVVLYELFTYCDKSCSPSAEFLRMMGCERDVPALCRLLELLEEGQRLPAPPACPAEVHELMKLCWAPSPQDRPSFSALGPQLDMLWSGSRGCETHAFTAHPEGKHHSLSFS
The experiment in a line: JAK Caliper Enzyme Assay at 1 mM ATP. The assay is classed as biochemical. As to the method:
(§1) Test article was solubilized in dimethyl sulfoxide (DMSO) to a stock concentration of 30 mM. An 11-point half log dilution series was created in DMSO with a top concentration of 600 μM. […] Test article and assay controls were added to a 384-well plate. […] Enzyme concentrations and incubation times were optimized for each new enzyme preps and were modified slightly over time to ensure 20%-30% phosphorylation. […] The assay plates were placed on a Caliper Life Science Lab Chip 3000 (LC3000) instrument, and each well was sampled using appropriate separation conditions to measure the unphosphorylated and phosphorylated peptide.

Assay [2] addresses T1, JAK3 enzyme. The experiment in a line: JAK Caliper Enzyme Assay at 4 μM ATP. The assay is classed as biochemical. As to the method: as §1

A word on the IC50: it is the concentration at which inhibition is half-maximal. Read a high IC50 as weaker potency. For `C=CC(=O)N1CCC[C@@H]1COc1cnc2[nH]cc(C(=O)N[C@@H](C)COC)c2n1` (single isomer, unassigned) [Example 9], the IC50 in assay [1] came out at 1.21 µM; in assay [2], 0.00886 µM.
For `C=CC(=O)N1C[C@H](Nc2ncnc3[nH]ccc23)CC[C@@H]1CNC(C)=O` (single isomer, unassigned) [Example 89], the IC50 in assay [1] was 7.67 µM; in assay [2], 0.0764 µM.
For `C#CCNC(=O)c1c[nH]c2ncc(N3CCN(C(=O)C=C)C(C)(C)C3)nc12` [Example 83, 2-(4-acryloyl-3,3-dimethylpiperazin-1-yl)-N-(prop-2-yn-1-yl)-5H-pyrrolo[2,3-b]pyrazine-7-carboxamide], in that order: 1.11 µM and 0.0107 µM.
As for `C=CC(=O)N1C[C@@H](Nc2ncnc3[nH]ccc23)CC[C@H]1COC` (single isomer, unassigned) [Example 93], the IC50 in assay [1] was greater than 3.16 µM; in assay [2], 0.711 µM.
For `C=CC(=O)N1CCC(Oc2cnc3[nH]cc(C(C)O)c3n2)CC1` (racemic) [Example 117], in that order: 1.49 µM and 0.0119 µM.
Regarding `C=CC(=O)N1C[C@H](Nc2cnc3[nH]cc(C(=O)NCC)c3n2)C[C@@H]1COC` [Example 262, 2-{[(3R,5R)-1-acryloyl-5-(methoxymethyl)pyrrolidin-3-yl]amino}-N-ethyl-5H-pyrrolo[2,3-b]pyrazine-7-carboxamide], the IC50 in assay [1] was found to be 2.18 µM; in assay [2] it was 0.0116 µM.
Consider `C=CC(=O)N1C[C@H](Nc2cnc3[nH]cc(C(=O)NCC)c3n2)C[C@H]1COC` [Example 239, 2-{[(3R,5S)-1-acryloyl-5-(methoxymethyl)pyrrolidin-3-yl]amino}-N-ethyl-5H-pyrrolo[2,3-b]pyrazine-7-carboxamide], for which the IC50 was 0.757 µM in assay [1] and 0.00378 µM in assay [2].
For `C=CC(=O)N1CCC(Oc2cnc3[nH]cc(C(=O)NCC4CCC4)c3c2)CC1` [Example 345, 5-[(1-acryloylpiperidin-4-yl)oxy]-N-(cyclobutylmethyl)-1H-pyrrolo[2,3-b]pyridine-3-carboxamide], in that order: 4.03 µM and 0.0437 µM.
The corresponding values for `C=CC(=O)N1CCC(N(C)c2cnc3[nH]cc(C(=O)N4CCC4)c3n2)CC1` [Example 62, 1-(4-{[7-(azetidin-1-ylcarbonyl)-5H-pyrrolo[2,3-b]pyrazin-2-yl](methyl)amino}piperidin-1-yl)prop-2-en-1-one] are 2.7 µM and 0.0135 µM.
The corresponding values for `C=CC(=O)N1CCC(Oc2cnc3[nH]cc(-c4ncnn4C)c3n2)CC1` [Example 122, 1-(4-{[7-(1-Methyl-1H-1,2,4-triazol-5-yl)-5H-pyrrolo[2,3-b]pyrazin-2-yl}oxy)piperidin-1-yl]prop-2-en-1-one] are 1.47 µM and 0.00897 µM.
Consider `C=CC(=O)N1CCC(Oc2cnc3[nH]cc(-c4n[nH]c(C(C)C)n4)c3n2)CC1` [Example 116, 1-[4-({7-[5-(Propan-2-yl)-1H-1,2,4-triazol-3-yl]-5H-pyrrolo[2,3-b]pyrazin-2-yl}oxy)piperidin-1-yl]prop-2-en-1-one], for which the IC50 in assay [1] is 2.55 µM; in assay [2], 0.0147 µM.
On to `C=CC(=O)N1CC(Nc2cnc3[nH]cc(C(=O)NCCC(F)(F)F)c3n2)C2(CC2)C1` (stereo not drawn) [Example 252, 2-[(5-acryloyl-5-azaspiro[2.4]hept-7-yl)amino]-N-(3,3,3-trifluoropropyl)-5H-pyrrolo[2,3-b]pyrazine-7-carboxamide], for which the figures for the IC50 in assay [1] and in assay [2] were greater than 10 µM and 0.11 µM, respectively.
With `C=CC(=O)N1CCN(c2cnc3[nH]cc(C(=O)N[C@H](CO)C(CC)CC)c3n2)CC1(C)C` [Example 137, 2-(4-acryloyl-3,3-dimethylpiperazin-1-yl)-N-[(2S)-3-ethyl-1-hydroxypentan-2-yl]-5H-pyrrolo[2,3-b]pyrazine-7-carboxamide], the IC50 in assay [1] was 3.02 µM; in assay [2], 0.0281 µM.
On to `C=CC(=O)N1CC[C@@H](N(C)c2cnc3[nH]cc(C(=O)NCC)c3n2)C1` (single isomer, unassigned) [Example 29], for which the IC50 in assay [1] was found to be 8.31 µM.

The values are drawn from patent US10703756B2, “Pyrrolo[2,3-D]pyrimidinyl, pyrrolo[2,3-B]pyrazinyl, pyrrolo[2,3-B]pyridinyl acrylamides and epoxides thereof” (Pfizer Inc., priority 2015, dated 2020).
